# Measurements as given in patent US5804601A, “Aromatic hydroxamic acid compounds, their production and use” (Takeda Chemical Industries, Ltd., priority 1995, dated 1998).
# What was measured:
# [1] = test system: apomorphine-induced circling in rats pretreated with LPS infused into the unilateral striatum; test: Inhibitory effect on the apomorphine-induced circling in rats pretreated with LPS infused into the unilateral striatum; format: in vivo, rat; conditions: for Number of ipsilateral circlings (mean ± S.E.): 3 times, LPS 5 μg, apomorphine 1 mg/kg s.c., 30-minute period, n=4
# Method: Inhibitory effect on the apomorphine-induced circling in rats pretreated with LPS infused into the unilateral striatum Male Wistar rats (8-9 weeks old) weighing 250-280 g at the operation for LPS infusion were submitted to the experiment. Throughout the experimental period, the animals were group-fed in a vivarium controlled at 24±1° C. and 55±1% R.H., with a light-dark cycle of 12 hr (7:00-19:00 ON) and free access to food (Clea Japan, Inc., CE-2 pellets) and water (tap water). Under pentobarbital (50 mg/kg, i.p.) anesthesia, the rat's head was immobilized in David Kopf's brain stereotaxic apparatus for small animal use and with reference to Pellegrino & Cushman's brain atlas, a 30 G stainless steel needle was indwelled in the unilateral striate body (A8.2, L2.8, H4.3). The infusion amount of LPS was set at 5 μg. LPS was dissolved in 1 μl of phosphate-buffered saline (PBS, pH 7.2) and the solution was infused gradually at a speed of 0.2 μl/min. The infusion needle was kept in position till 3 minutes following infusion and withdrawn only after sufficient diffusion of the drug solution had taken place. After 7-8 days postoperatively, 1 mg/kg of apomorphine was administered subcutaneously and the number of induced circling behavior during a 30-minute period immediately following administration were determined with an automatic counter. Compound A was suspended in 5% aqueous gum arabic solution and the suspension was administered either orally or intraperitoneally at a dose rate of 0.2 ml per 100 g rat body weight. This administration was carried out 3 times, namely 30 minutes before infusion of 5 μg LPS and 3 and 24 hours after the infusion. As a control, physiological saline solution alone was administered intraperitoneally.
# [2] = test system: NO (nitric oxide) production; test: Inhibitory effect on LSP-induced NO (nitric oxide) production in a rat mixed cerebral cell culture system; format: cell-based; conditions: 120 h, LSP 5 μg/ml, 5 days, combined NO3^- and NO2^- in culture supernatant, read-out: inhibition concentration (IC50) against LSP-induced NO production
# Method: Inhibitory effect on LSP-induced NO (nitric oxide) production in a rat mixed cerebral cell culture system
# (1) Rat mixed cerebral cell culture
# Rat mixed cerebral cell cultures were prepared by the procedure described in Experimental Example 1.
# 1. Twenty (20) days after initiation of rat mixed cerebral cell culture, the medium was removed from each well of the 96-well microtiter plate and, instead, 125 μl/well of D-MEM/2% FCS containing 5 μg/ml (final concentration) of LSP (Difco, E. coli 011: B4, Bacto) and a suitable dilution of the test compound was added. As the test sample, a stock DMSO solution of 10^-2 M concentration was prepared and diluted with D-MEM/2% FCS.
# 2. After a further 5 days of cell culture, the combined amount of NO3^- and NO2^- in the culture supernatant was determined with the NO3^- NO2^- Assay Kit (Cayman Chemical, Catalog No. 780001, U.S.A.). The assays were carried out in accordance with the accompanying protocol.
# The IC50 values were determined from a plot of the concentrations of the test compound which caused a 50% decrease in the combined amount of […] and NO3^- in the culture supernatant as compared with the well to which LSP alone had been added in a final concentration of 5 μg/ml without addition of compound A.
# TNFα = test: LPS-induced TNFα production in the rat mixed cerebral cell culture system (ELISA); format: cell-based; conditions: LPS 10 μg/ml, 24 hours
# Method: Rat mixed cerebral cell cultures on day 15 after starting cell cultures were used. After removal of the medium, LPS (E. coli 011: B4, Bacto) (Difco Laboratories), 10 μg/ml, and Compound A, 10^-6 or 10^-7 M, were simultaneously added and the final volume was adjusted to 100 μl. After 24 hours of incubation at 37° C., the culture supernatant was collected as a sample for ELISA. The assay for determining TNFα amount was made using Mouse TNFα ELISA Kit (Genzyme) in accordance with its assay protocol.
# [3] = test system: rat mixed cerebral cell culture; test: Neutralizing effect on LPS-induced cytotoxicity in a rat mixed cerebral cell culture system (LIC assay), MTT method; format: cell-based; conditions: concentration giving a recovery rate of 50%, usually 4-5 days incubation, read-out: ED50 (the source's name)
# Method: Neutralizing effect on lipopolysaccharide (LPS)--induced cytotoxicity in a rat mixed cerebral cell culture system (LIC assay)
# LPS, a substance known to activate glial cells (astrocytes, microglia), was added to a rat mixed cerebral cell culture system and the compounds which would neutralize the cytotoxicity induced by LPS were screened by the following method.
# (1) Neonatal rat mixed cerebral cell culture
# From neonatal Crj:CD (SD) rats (1-3 days old, Charles-River Japan, Ltd.), the brains were isolated and placed in ice-cold D-MEM/10% FCS (Dulbecco's cell culture minimal essential medium supplemented with 10% of fetal calf serum, 100 units/ml of penicillin and 100 μg/ml of streptomycin). Then, mixed cerebral cell cultures were carried out in the following steps.
# 1. The cerebrums were separated from the enucleated brains and the meninges was removed under the stereoscopic microscope.
# 2. The cerebrums were placed in a nylon-mesh (100-200 μm) bag to filter with the aid of a rubber policeman.
# 3. Using ice-cold D-MEM/10% FCS, the cells were washed 3 times (1000 rpm, 8 min.). Then, this cell suspension was filtered through a cell strainer (40 μm mesh, Falcon 2340) and the number of viable cells was counted by the trypan blue method.
# 4. The cells, were seeded in wells of a 96-well microtiter plate (Nunc) at a cell density of 1×10^5 cells/100 μl/well, and started a cell culture at 37° C.
# 5. One week later, 100 μl/well of D-MEM/10% FCS was added.
# 6. The plate was further incubated for about 1-2 weeks and the neutralizing activity of the test compound was evaluated by the following method.
# (2) Evaluation of neutralizing activity in LPS-induced cytotoxicity
# 1. Following the rat mixed cerebral cell culture described in (1) (after 2-3 weeks of incubation), the medium was discarded from the respective wells of the 96-well microtiter plate, and 50 μl/well of fresh D-MEM/2% FCS was added.
# 2. A test sample and LPS (Difco, E. coli 011: B4, Bacto) of a suitable concentration, 25 μl each per well, were respectively added. D-MEM/2% FCS was used as the medium.
# As the test sample, each of the compounds shown in Table 32 was dissolved in DMSO at a concentration of 10 ^-2 M and the solution was diluted with D-MEM/2% FCS and submitted for assay.
# 3. After a suitable period (usually 4-5 days) of incubation, the degree of cytotoxic effect was assessed by the microscopic observation, and MTT method.
# (3) MTT [3-(4,5-dimethylthiazol-2-yl)-2,5-diphenyltetra zolium bromide] method
# Ten μl of MTT solution (5 mg/ml, Sigma) dissolved in phosphate-buffered saline was added to each well. After 4-6 hours of incubation (37° C., under 10% CO2), 100 μl/well of 0.01N-hydrochloric acid containing 10% SDS was added, whereby the formed formazan was dissolved. After complete dissolution, the absorbance (540-590 nm) was measured for each well.
# The ED50 values were determined by calculating the recovery rates by means of the following equation and plotting the concentrations of compounds giving a recovery rate of 50% on graph paper.
# Recovery rate (%)=(C-B)×100/(A-B)
# [A: the absorbance at 550 nm of the control well to which only the medium had been added
# B: the absorbance at 550 nm of the well to which LPS had been added
# C: the absorbance at 550 nm of the well to which both LPS and the test compound had been added]
smiles,measurement,setting,value
"COc1ccc(C(CCCCC(=O)NO)C2=C(C)C(=O)c3ccccc3C2=O)cc1 (stereo not shown) [Compound A, 6-(3-Methyl-1,4-naphthoquinon-2-yl)-6-(4-methoxyphenyl)hexanohydroxamic acid]",Number of ipsilateral circlings (mean ± S.E.),[1]; i.p. (3 mg/kg),44 ± 15
same,Number of ipsilateral circlings (mean ± S.E.),[1]; p.o. (30 mg/kg),65 ± 21
same,LPS-induced injury of the unilateral striatum (in words),"[1]; rat, in vivo",significantly attenuated
same,IC50,[2],80 nM
same,TNFα,TNFα; Compound A 10^-6 M,230 pg/mL
same,TNFα,TNFα; Compound A 10^-7 M,790 pg/mL
same,EC50,[3],20 nM
